# Where a name gives a salt, the structure may show the parent alone.
row,Structure (SMILES),melting point
1,"Cc1ccc2c(c1)nc(C(F)(F)F)c1nc(-c3cccs3)n(CCC3CCNCC3)c12 (as salt: trifluoroacetate) (hydrate or solvate) [Example 91, 7-Methyl-1-[2-(4-piperidyl)ethyl]-2-(2-thienyl)-4-trifluoromethyl-1H-imidazo-[4,5-c]quinoline]",236 to 238 °C (dec.)
2,c1ccc(-c2nc3c(-c4ccco4)nc4ccccc4c3n2CCC2CCNCC2)cc1,224.5 to 225.5 °C
3,"Fc1ccc2c(c1)nc(C(F)(F)F)c1nc(-c3ncc[nH]3)n(CCC3CCNCC3)c12 (as salt: trifluoroacetate) (hydrate or solvate) [Example 83, 7-Fluoro-2-(2-1H-imidazolyl)-1-[2-(4-piperidyl)ethyl]-4-trifluoromethyl-1H-imidazo[4,5-c]quinoline]",249 to 250 °C (dec.)
4,"NCCn1c(-c2ccccc2)nc2c(C(F)(F)F)nc3ccccc3c21 [Example 108, 1-(2-Aminoethyl)-2-phenyl-4-trifluoromethyl-1H-imidazo[4,5-c]quinoline]",174.5 to 175.5 °C
5,"FC(F)(F)c1nc2cc(Cl)ccc2c2c1nc(-c1nccs1)n2CCC1CCNCC1 [Example 74, 7-Chloro-1-[2-(4-piperidyl)ethyl]-2-(2-thiazolyl)-4-trifluoromethyl-1H-imidazo-[4,5-c]quinoline]",232.5 to 234 °C (dec.)
6,"Cc1ccc2c(c1)nc(C(F)(F)F)c1nc(-c3ncc[nH]3)n(CCC3CCNCC3)c12 (as salt: trifluoroacetate) (hydrate or solvate) [Example 89, 2-(2-1H-Imidazolyl)-7-methyl-1-[2-(4-piperidyl)ethyl]-4-trifluoromethyl-1H-imidazo[4,5-c]quinoline]",303 to 305 °C (dec.)
7,"NCC(=O)NCCn1c(-c2ccc[nH]2)nc2c(C(F)(F)F)nc3ccccc3c21.O=C(O)/C=C/C(=O)O [Example 131, 2-Amino-N-[2-[2-(2-pyrrolyl)-4-trifluoromethyl-1H-imidazo[4,5-c]quinolin-1-yl]ethyl]-acetamide fumarate]",176 to 177 °C (dec.)
8,"FC(F)(F)c1nc2cc(Cl)ccc2c2c1nc(-c1cccs1)n2CCC1CCNCC1 (as salt: trifluoroacetate) (hydrate or solvate) [Example 77, 7-Chloro-1-[2-(4-piperidyl)ethyl]-2-(2-thienyl)-4-trifluoromethyl-1H-imidazo-[4,5-c]quinoline]",217 to 219 °C (dec.)
9,"FC(F)(F)c1nc2ccccc2c2c1nc(-c1ccccc1)n2CCC1CNCCO1 (stereo not drawn) (as salt: trifluoroacetate) (hydrate or solvate) [Example 101, 1-[2-(2-Morpholinyl)ethyl]-2-phenyl-4-trifluoromethyl-1H-imidazo[4,5-c]-quinoline]",224 to 228 °C (dec.)
10,FC(F)(F)c1nc2ccccc2c2c1nc(-c1ccccc1)n2CCC1CC2CCC(C1)N2 (stereo not drawn) (as salt: trifluoroacetate),249 to 251 °C (dec.)
11,FC(F)(F)c1nc2cc(Cl)ccc2c2c1nc(-c1ccco1)n2CCC1CCNCC1 (as salt: trifluoroacetate),219 to 221 °C (dec.)
12,Cc1ccc2c(c1)nc(C(F)(F)F)c1nc(-c3ccccc3O)n(CCC3CCNCC3)c12 (as salt: trifluoroacetate),161 to 162 °C
13,FC(F)(F)c1nc2cc(Cl)ccc2c2c1nc(C1CCCC1)n2CCC1CCNCC1 (as salt: trifluoroacetate),246 to 248 °C (dec.)
14,"Fc1ccc2c(c1)nc(C(F)(F)F)c1nc(-c3nccs3)n(CCC3CCNCC3)c12 (as salt: trifluoroacetate) [Example 82, 7-Fluoro-1-[2-(4-piperidyl)ethyl]-2-(2-thiazolyl)-4-trifluoromethyl-1H-imidazo-[4,5-c]quinoline]",236 to 237 °C (dec.)
15,"FC(F)(F)c1nc2ccccc2c2c1nc(C1CCCCC1)n2CCC1CCNCC1 (as salt: trifluoroacetate) [Example 71, 2-Cyclohexyl-1-[2-(4-piperidyl)ethyl]-4-trifluoromethyl-1H-imidazo[4,5-c]quinoline]",182.5 to 184 °C
16,"Fc1ccc2c(c1)nc(C(F)(F)F)c1nc(-c3ccc[nH]3)n(CCC3CCNCC3)c12 (as salt: trifluoroacetate) (hydrate or solvate) [Example 81, 7-Fluoro-1-[2-(4-piperidyl)ethyl]-2-(2-pyrrolyl)-4-trifluoromethyl-1H-imidazo-[4,5-c]quinoline]",252 to 254 °C (dec.)
17,"FC(F)(F)c1nc2ccccc2c2c1nc(-c1ccc[nH]1)n2CCC1CCNCC1 [Example 64, 1-[2-(4-Piperidyl)ethyl]-2-(2-pyrrolyl)-4-trifluoromethyl-1H-imidazo[4,5-c]-quinoline]",280 to 282.5 °C (dec.)
18,"CN(C)CC(=O)NCCn1c(-c2ccc[nH]2)nc2c(C(F)(F)F)nc3ccccc3c21.O=C(O)/C=C/C(=O)O [Example 129, 2-Dimethylamino-N-[2-[2-(2-pyrrolyl)-4-trifluoromethyl-1H-imidazo[4,5-c]quinolin-1-yl]ethyl]acetamide fumarate]",219 to 222 °C (dec.)
19,"CNCC(=O)NCCn1c(-c2ccccc2)nc2c(C(F)(F)F)nc3ccccc3c21 [Example 127, 2-Methylamino-N-[2-(2-phenyl-4-trifluoromethyl-1H-imidazo[4,5-c]quinolin-1-yl)-ethyl]acetamide]",208 to 209 °C
20,"c1ccc(-c2nc3ccccc3c3c2nc(-c2ccccc2)n3CCC2CCNCC2)cc1 [Example 112, 2,4-Diphenyl-1-[2-(4-piperidyl)ethyl]-1H-imidazo[4,5-c]quinoline]",209 to 211 °C
21,"FC(F)(F)c1nc2ccccc2c2c1nc(-c1ccccc1)n2CCN1CCNCC1 [Example 99, 2-Phenyl-1-[2-(1-piperazinyl)ethyl]-4-trifluoromethyl-1H-imidazo[4,5-c]-quinoline]",187 to 188 °C
22,"NCCn1c(-c2ccc[nH]2)nc2c(C(F)(F)F)nc3ccccc3c21 [Example 109, 1-(2-Aminoethyl)-2-(2-pyrrolyl)-4-trifluoromethyl-1H-imidazo[4,5-c]quinoline]",195.5 to 196.5 °C
23,"CN(C)CCn1c(-c2ccc[nH]2)nc2c(C(F)(F)F)nc3ccccc3c21 (as salt: fumarate) [Example 51, 1-(2-Dimethylaminoethyl)-2-(2-pyrrolyl)-4-trifluoromethyl-1H-imidazo[4,5-c]-quinoline]",228 to 230 °C (dec.)
24,"O=C(O)c1nc2ccccc2c2c1nc(-c1ccccc1)n2CCC1CCNCC1 (as salt: trifluoroacetate) (hydrate or solvate) [Example 118, 2-Phenyl-1-[2-(4-piperidyl)ethyl]-1H-imidazo[4,5-c]quinoline-4-carboxylic acid]",212 to 215 °C

# Continued, values first:
row,melting point,Structure (SMILES)
1,280 to 284 °C (dec.),"Cc1ccc2c(c1)nc(C(F)(F)F)c1nc(-c3ccc[nH]3)n(CCC3CCNCC3)c12 (as salt: trifluoroacetate) (hydrate or solvate) [Example 87, 7-Methyl-1-[2-(4-piperidyl)ethyl]-2-(2-pyrrolyl)-4-trifluoromethyl-1H-imidazo-[4,5-c]quinoline]"
2,199 to 200 °C,"FC(F)(F)c1nc2ccccc2c2c1nc(-c1nccs1)n2CCC1CCNCC1 [Example 70, 1-[2-(4-Piperidyl)ethyl]-2-(2-thiazolyl)-4-trifluoromethyl-1H-imidazo[4,5-c]-quinoline]"
3,229.5 to 231.5 °C (dec.),FC(F)(F)c1nc2ccccc2c2c1nc(-c1ccccc1)n2CCC1CCCNC1 (stereo not drawn) (as salt: trifluoroacetate)
4,142.5 to 147 °C (dec.),"c1ccc(-c2nc3c(C4CC4)nc4ccccc4c3n2CCC2CCNCC2)cc1 (as salt: fumarate) (hydrate or solvate) [Example 110, 4-Cyclopropyl-2-phenyl-1-[2-(4-piperidyl)ethyl]-1H-imidazo[4,5-c]quinoline]"
5,268 to 270 °C,"c1ccc(-c2nc3ccccc3c3c2nc(-c2ccc[nH]2)n3CCC2CCNCC2)cc1 (hydrate or solvate) [Example 113, 4-Phenyl-1-[2-(4-piperidyl)ethyl]-2-(2-pyrrolyl)-1H-imidazo[4,5-c]quinoline]"
6,239 to 241 °C (dec.),"Cc1ccc2c(c1)nc(C(F)(F)F)c1nc(-c3nccs3)n(CCC3CCNCC3)c12 (as salt: trifluoroacetate) (hydrate or solvate) [Example 88, 7-Methyl-1-[2-(4-piperidyl)ethyl]-2-(2-thiazolyl)-4-trifluoromethyl-1H-imidazo-[4,5-c]quinoline]"
7,227 to 229 °C (dec.),"Cc1cccc2c1nc(C(F)(F)F)c1nc(-c3cccs3)n(CCC3CCNCC3)c12 (as salt: trifluoroacetate) (hydrate or solvate) [Example 98, 6-Methyl-1-[2-(4-piperidyl)ethyl]-2-(2-thienyl)-4-trifluoromethyl-1H-imidazo-[4,5-c]quinoline]"
8,237 to 239 °C,"FC(F)(F)c1nc2ccccc2c2c1nc(-c1cccs1)n2CCC1CCNCC1 (as salt: trifluoroacetate) (hydrate or solvate) [Example 66, 1-[2-(4-Piperidyl)ethyl]-2-(2-thienyl)-4-trifluoromethyl-1H-imidazo[4,5-c]-quinoline]"
9,232 to 234 °C (dec.),Cc1cccc2c1nc(C(F)(F)F)c1nc(-c3ccco3)n(CCC3CCNCC3)c12 (as salt: trifluoroacetate) (hydrate or solvate)
10,236 to 237 °C (dec.),"FC(F)(F)c1nc2cc(Cl)ccc2c2c1nc(C1CCCCC1)n2CCC1CCNCC1 (as salt: trifluoroacetate) [Example 79, 7-Chloro-2-cyclohexyl-1-[2-(4-piperidyl)ethyl]-4-trifluoromethyl-1H-imidazo-[4,5-c]quinoline]"
11,218 to 219 °C (dec.),"Cc1cccc2c1nc(C(F)(F)F)c1nc(-c3ccccc3)n(CCC3CCNCC3)c12 (as salt: trifluoroacetate) [Example 93, 6-Methyl-2-phenyl-1-[2-(4-piperidyl)ethyl]-4-trifluoromethyl-1H-imidazo-[4,5-c]quinoline]"
12,230.5 to 231.5 °C,"O=C(CCl)NCCn1c(-c2ccccc2)nc2c(C(F)(F)F)nc3ccccc3c21 [Example 124, 2-chloro-N-[2-(2-phenyl-4-trifluoromethyl-1H-imidazo[4,5-c]quinolin-1-yl)ethyl]acetamide]"

# — patent US20040054182A1, “1h-imidazopyridine derivatives” (priority 2000, published 2004)
